Literature values in paper PMC4191920 (Journal of molecular biology, 2014).

System: fibril formation
Details: at pH 7.4

[Nα-methyl-β-Ala26]Aβ42
effect on fibril formation: inhibit fibril formation
